Assay results as given in patent EP3958980B1, “TARGETED NOVEL TRIAZOLOTHIADIAZINE DERIVATIVES FOR THE TREATMENT OF LUNG CANCER” (Anadolu Universitesi, priority 2020, dated 2021).
In brackets after ≈: the same amount, converted by molar mass. Several values for one entry are separate records, joined by “and”; a condition that tells them apart may be missing. Identical values can stand only once.

Legend:
[1] = system: A549 human lung adenocarcinoma cells; assay: MTT assay, in vitro cytotoxic activity on A549; assay type: cell-based; conditions: Homo sapiens, A549, 24 hour incubation, read-out: IC50 values (µg/mL) A549 cell line
Method: (§1) The in vitro cytotoxic effects of the compounds were determined with the MTT assay. For this purpose, MTT test was performed using A549 and CCD-19Lu cell lines. After the cell lines used in the invention were centrifuged following taking them out from liquid nitrogen (-196 °C), the cells were cultured in a CO2 incubator comprising 5% CO2 at 37 °C in flasks containing 10% fetal bovine serum (FBS), where CCD-19Lu cells were cultured with Dulbecco's Modified Eagle's Medium (DMEM) and A549 cells were cultured with Roswell Park Memorial Institute (RPMI). The cells that reach the sufficient number for the assay, were seeded to 96 well plates such that 2×10^3 cells were placed in each well and at the same time, components at concentrations of 1-500 µg/mL were added to cells and they were incubated at 37 °C. At the end of the 24 hour incubation period, the MTT powder (5 mg/mL in 1 × phosphate buffered saline (PBS)) was added to each well (20 µL). After a 2-4 h period under the same conditions, the medium was removed from the plate and 100 µL of DMSO was added to each well to dissolve the dye and kept for 10 minutes. Then the plates were read at a wavelength of 540 nm using ELx808-IU Bio-Tek plate reader. The control cell viability which was not treated with the components was accepted to be 100% and the viability rates of the cells were expressed as %. […] According to the results obtained, the dose range was extended until the IC50 value was determined. MTT assay is a frequently used method which measures the cytotoxic effects of the compounds on the cells by converting the yellow colored MTT stain into purple colored formazan crystals via the mitochondrial succinate dehydrogenase activity. In the cytotoxic activity tests of the compounds, A549 lung adenocarcinoma and CCDLu19 normal lung fibroblast cell lines were used.

[2] = system: CCD-19Lu normal lung fibroblast cells; assay: MTT assay, in vitro cytotoxic activity on CCD-19Lu; assay type: cell-based; conditions: 24 hour incubation; for IC50: Homo sapiens, CCD 19Lu, read-out: IC50 values (µg/mL) CCDLul9 cell line
Method: as §1, with “determined.” for “determined. MTT assay is a frequently used method which measures the cytotoxic effects of the compounds on the cells by converting the yellow colored MTT stain into purple colored formazan crystals via the mitochondrial succinate dehydrogenase activity. In the cytotoxic activity tests of the compounds, A549 lung adenocarcinoma and CCDLu19 normal lung fibroblast cell lines were used.”
MTT assay is a frequently used method which measures the cytotoxic effects of the compounds on the cells by converting the yellow colored MTT stain into purple colored formazan crystals via the mitochondrial succinate dehydrogenase activity. In the cytotoxic activity tests of the compounds, A549 lung adenocarcinoma and CCDLu19 normal lung fibroblast cell lines were used.

[3] = system: hepatocellular carcinoma (Hep3 B), human breast adenocarcinoma (MCF-7), human cervical carcinoma (HeLa); conditions: against all tested cancer cells; cited from earlier work
[4] = system: human colon epithelial (HT-29) cells; conditions: cited from earlier work
[5] = system: kidney fibroblast (BHK-21) cells; conditions: cited from earlier work
Akt = Akt colorimetric in cell ELISA in A549 cells; assay type: cell-based, human; conditions: 24 hours
Method: After 10.000 cells were seeded in the wells, they were kept in the incubator for 24 hours. […] Briefly, the medium was removed from the wells and 100 µL of 4% formaldehyde was added. The plate was incubated in a fume hood for 15 minutes. Formaldehyde was removed and the plate was washed twice with 1X […] (TBS) such as to be 100 µL/well. 1X TBS was removed and 100 µL 1X permeabilization solution was added to each well and it was kept at room temperature for 15 minutes. After the 1X permeabilization solution was removed, the wells were washed with 100 µL 1X TBS once. 1X TBS was removed and 100 µL quenching solution was added to each well and it was kept at room temperature for 20 minutes. Afterwards, this solution was removed. The plate was washed 1 time with 1X TBS and 100 µL blocking solution was added to the wells and it was kept at room temperature for 30 minutes. At the end of this period, the blocking solution was removed and 50 µL primary antibody was added to the wells. The plate was sealed with a cover and it was incubated overnight at 4 °C. The primary antibody was removed and the plate wells were washed 3 times with 100 µL 1X washing solution. After the washing solution was removed, 100 µL diluted horseradish peroxidase (HRP) conjugate was added and it was incubated at room temperature for 30 minutes. Later on this conjugate was removed and 100 µL 3,3',5,5'-tetramethylbenzidine (TMB) […] was added to each well and the absorbance values were read at 450 nm for 30 minutes. The experiment was carried out in triplicate. The values of the blank wells were subtracted from the values of the untreated control and treated cells. The Akt activity% was determined as the relative absorbance of treated versus untreated control cells.

[6] = system: kidney cancer (OU-31) cell line; design: concentration or dose not given beside the values; conditions: cited from earlier work
lung cancer (H157) cells = conditions: cited from earlier work
A549 cells = conditions: cited from earlier work

Row | Structure (SMILES) | IC50 [1] [µg/mL] | IC50 [2] [µg/mL] | also measured
1 | Fc1ccc(C2=Nn3c(CCc4ccc5c(c4)OCO5)nnc3SC2)cc1 [Compound 4, 3-[2-(1,3-Benzodioxole-5-yl)ethyl]-6-(4-fluorophenyl)-7H-[1,2,4]triazolo[3,4-b] [1,3,4]thiadiazine] | 325 ± 35.4 (≈ 850 µM) | > 500 | –
2 | CCCCC/C=C\CC[C@H](O)CCCCCCCc1nnc2n1N=C(c1ccccc1)CS2 [3-[(8R,11Z)-8-hydroxyheptadec-11-enyl]-6-phenyl-7H-1,2,4-triazolo[3,4-b]-1,3,4-thiadiazine] | – | – | IC50 [3]: < 8.83 µM
3 | CS(=O)(=O)c1ccc(Cc2nnc3n2N=C(c2ccccc2)CS3)cc1 [3-(4-(methylsulfonyl)benzyl)-6-phenyl-7H-[1,2,4]triazolo[3,4-b][1,3,4]thiadiazine] | – | – | IC50 [4]: 25 µM
4 | COc1ccc(C2=Nn3c(CCc4ccc5c(c4)OCO5)nnc3SC2)cc1 [Compound 7, 3-[2-(1,3-Benzodioxole-5-yl)ethyl]-6-(4-methoxyphenyl)-7H-[1,2,4]triazolo[3,4-b] [1,3,4]thiadiazine] | 45.7 ± 5.51 (≈ 116 µM) | 44.3 ± 1.15 (≈ 112 µM) | –
5 | Clc1ccc(C2=Nn3c(CCc4ccc5c(c4)OCO5)nnc3SC2)cc1 [Compound 5, 3-[2-(1,3-Benzodioxole-5-yl)ethyl]-6-(4-chlorophenyl)-7H-[1,2,4]triazolo[3,4-b] [1,3,4]thiadiazine] | > 500 | < 3.9 | –
6 | COc1cccc(C2=Nn3c(nnc3-c3ccncc3)SC2)c1 [6-(3-Methoxyphenyl)-3-(pyridine-4-yl)-7H-[1,2,4]triazolo[3,4-b][1,3,4]thiadiazine] | – | – | inhibition [5]: 73.3%
7 | c1ccc2cc(C3=Nn4c(CCc5ccc6c(c5)OCO6)nnc4SC3)ccc2c1 [Compound 10, 3-[2-(1,3-Benzodioxole-5-yl)ethyl]-6-(naphthalene-2-yl)-7H-[1,2,4]triazolo [3,4-b][1,3,4]thiadiazine] | 4.1 ± 0.14 (≈ 9.89 µM) | < 3.9 | IC50 values (µg/mL) CCDLul9 cell line [2]: <3.90 µg/mL
8 | CS(=O)(=O)c1ccc(Cc2nnc3n2N=C(c2ccc(-c4ccccc4)cc2)CS3)cc1 [6-(biphenyl-4-yl)-3-(4-(methylsulfonyl)benzyl)-7H-[1,2,4]triazolo[3,4-b][1,3,4]thiadiazine] | – | – | IC50 [4]: 12.5 µM
9 | c1csc(-c2ccc(C3=Nn4c(CCc5ccc6c(c5)OCO6)nnc4SC3)cc2)c1 [Compound 15, 3-[2-(1,3-Benzodioxole-5-yl)ethyl] -6-(4-(thiophen-2-yl)phenyl)-7H-[1,2,4] triazolo [3,4-b] [1,3,4]thiadiazine] | 4 ± 0.2 (≈ 8.96 µM) | < 3.9 | IC50 values (µg/mL) CCDLul9 cell line [2]: <3.90 µg/mL
10 | N#Cc1ccc(C2=Nn3c(CCc4ccc5c(c4)OCO5)nnc3SC2)cc1 [Compound 3, 3-[2-(1,3-Benzodioxole-5-yl)ethyl]-6-(4-cyanophenyl)-7H-[1,2,4]triazolo[3,4-b] [1,3,4]thiadiazine] | > 500 | > 500 | –
11 | Brc1ccc(C2=Nn3c(CCc4ccc5c(c4)OCO5)nnc3SC2)cc1 [Compound 6, 3-[2-(1,3-Benzodioxole-5-yl)ethyl]-6-(4-bromophenyl)-7H-[1,2,4]triazolo[3,4-b] [1,3,4]thiadiazine] | 307 ± 58.6 (≈ 692 µM) | < 3.9 | –
12 | Clc1cccc(C2=Nn3c(CCc4ccc5c(c4)OCO5)nnc3SC2)c1 [Compound 13, 3-[2-(1,3-Benzodioxole-5-yl)ethyl]-6-(3-chlorophenyl)-7H-[1,2,4]triazolo[3,4-b][1,3,4]thiadiazine] | > 500 | > 500 | –
13 | CCn1c(-c2nonc2N)nc2c(C#CC(C)(C)O)ncc(OC[C@H]3CCCNC3)c21 [GSK690693, reference compound] | 6.75 ± 1.06 (≈ 15.9 µM) | – | Akt Inhibition% (Akt; IC50/2 concentration (9: 2.88; 11: 0.37; 12: 0.40; 14: 1.32; GSK690693: 3.34; Cisplatin: 11.50 µg/mL)): 60.56±3.04%; Akt Inhibition% (Akt; IC50/4 concentration (9: 1.44; 11: 0.18; 12: 0.20; 14: 0.66; GSK690693: 1.69; Cisplatin: 5.75 µg/mL)): 59.23±9.77%; Akt Inhibition% (Akt; IC50 concentration (9: 5.75; 11: 0.73; 12: 0.80; 14: 2.63; GSK690693: 6.75; Cisplatin: 23.00 µg/mL)): 61.67% and 61.67±1.21%
14 | c1ccc(C2=Nn3c(CCc4ccc5c(c4)OCO5)nnc3SC2)cc1 [Compound 1, 3-[2-(1,3-Benzodioxole-5-yl)ethyl]-6-phenyl-7H-[1,2,4]triazolo[3,4-b][1,3,4]thiadiazine] | 103 ± 11.5 (≈ 284 µM) | < 3.9 | –
15 | Cc1ccc(C2=Nn3c(CCc4ccc5c(c4)OCO5)nnc3SC2)cc1 [Compound 8, 3-[2-(1,3-Benzodioxole-5-yl)ethyl]-6-(4-methylphenyl)-7H-[1,2,4] triazolo [3,4-b] [1,3,4]thiadiazine] | > 500 | 14.7 ± 6.43 (≈ 38.8 µM) | –
16 | CCCCCC[C@@H](O)C/C=C\CCCCCCCc1nnc2n1N=C(c1ccccc1)CS2 [3-[(8Z,11R)-11-hydroxyheptadec-8-enyl]-6-phenyl-7H-1,2,4-triazolo[3,4-b]-1,3,4-thiadiazine] | – | – | IC50 [3]: < 8.83 µM
17 | Cc1ccc(C2=Nn3c(nnc3-c3ccncc3)SC2)cc1 [3-(pyridine-4-yl)-6-(p-tolyl)-7H-[1,2,4]triazolo[3,4-b][1,3,4]thiadiazine] | – | – | inhibition [5]: 72.6%
18 | O=C(CSc1nnc2n1N=C(c1ccc(F)cc1)CS2)c1ccc(F)cc1 [1-(4-fluorophenyl)-2-((6-(4-fluorophenyl)-7H-[1,2,4]triazolo[3,4-b][1,3,4]thiadiazine-3-yl)thio)ethanone] | – | – | growth [6]: 47.42%; inhibition [6]: 52.58%
19 | Clc1ccc(C2=Nn3c(nnc3-c3cccnc3)SC2)cc1Cl [6-(3,4-Dichlorophenyl)-3-(pyridine-3-yl)-7H-[1,2,4]triazolo[3,4-b][1,3,4]thiadiazine] | – | – | IC50 (lung cancer (H157) cells): 0.96 ± 0.43 µM
20 | O=C(CSc1nnc2n1N=C(c1ccc(Br)cc1)CS2)c1ccc(Br)cc1 [1-(4-bromophenyl)-2-((6-(4-bromophenyl)-7H-[1,2,4]triazolo[3,4-b][1,3,4]thiadiazine-3-yl)thio)ethanone] | – | – | growth [6]: 46.76%; inhibition [6]: 53.24%; growth (A549 cells): 58.58%; inhibition (A549 cells): 41.42%
21 | O=[N+]([O-])c1ccc(C2=Nn3c(CCc4ccc5c(c4)OCO5)nnc3SC2)cc1 [Compound 2, 3-[2-(1,3-Benzodioxole-5-yl)ethyl]-6-(4-nitrophenyl)-7H-[1,2,4]triazolo[3,4-b][1,3,4]thiadiazine] | 380 ± 70.7 (≈ 928 µM) | 3.93 ± 0.06 (≈ 9.6 µM) | –
